Data taken from patent publication US9834807B2, “Compositions for the detection of intracellular bacterial targets and other intracellular micororganism targets” (Becton, Dickinson and Company, priority 2008, dated 2017).

Columns and labels:
[1] = system: intracellular beta-lactamase; assay: nitrocefin hydrolysis by bacterial cell suspension on Phoenix panel; type: cell-based, E. coli; parameters: unit not given here; conditions: maximum hydrolysis rate within 10 hrs; for NCF activity: no lysis reagent
Method: (§1) Panel production. Stock solutions with nitrocefin, trehalose, and/or reagents used to lyse the bacterial cells in pH6 MES buffer were prepared and dispensed into wells on the bottom part of a Phoenix™ panel (BD, USA), with one stock solution in one well. Panels were then dried in an oven for approximately 30 min at approximately 70° C. The top part of Phoenix panel was then attached to the bottom part forming a panel system ready for inoculation. The concentrations of reagents after rehydration following Phoenix panel inoculation were 3 mg/ml lysozyme, 1 mM EDTA, and 1% trehalose in 0.1M pH6 MES buffer.
(§2) Inoculation and lysis testing. Representative strains of bacteria, such as E. coli and Klebsiella pneumoniae, were each streaked on a Trypticase™ Soy Agar with 5% Sheep Blood agar plate (BD, USA) and the plates were incubated at 35° C. for 18 hours. Afterwards, colonies from pure culture on each plate were inoculated into BD Phoenix ID broth and adjusted to a desired turbidity of approximately 0.5 MacFarland. The bacterial cell suspension was then poured into the ID side of the Phoenix panels that were specifically made for cell lysis testing. Once inoculated, the panel was loaded into Phoenix instrument, where nitrocefin hydrolysis rate was monitored by colorimetric signals changes every 20 minutes for 16 hours.
(§3) Microorganism. The presence of beta-lactamase in the strains tested herein was previously characterized by isoelectric focusing (IEF) gel electrophoresis, PCR testing, or MIC assays, which were performed by microbroth dilution method according to the CLSI (Clinical and Laboratory Standards Institute) standard.

[2] = system: intracellular beta-lactamase; assay: as above; type: cell-based, Klebsiella pneumoniae; parameters: unit not given here; conditions: maximum hydrolysis rate within 10 hrs; for NCF activity: no lysis reagent
Method: as §1, §2, §3

[3] = Sample 1, E. coli, beta-lactamase +
[4] = Sample 2, E. coli, beta-lactamase +
[5] = Sample 3, E. coli, beta-lactamase +
[6] = Sample 4, E. coli, beta-lactamase +
[7] = Sample 5, E. coli, beta-lactamase +
[8] = Sample 6, E. coli, beta-lactamase +
[9] = Sample 7, E. coli, beta-lactamase +
[10] = Sample 8, E. coli, beta-lactamase −
[11] = Sample 9, Klebsiella pneumoniae, beta-lactamase +
[12] = Sample 10, Klebsiella pneumoniae, beta-lactamase +
[13] = Sample 11, Klebsiella pneumoniae, beta-lactamase +
[14] = Sample 12, Klebsiella pneumoniae, beta-lactamase +
[15] = Sample 13, Klebsiella pneumoniae, beta-lactamase +
[16] = Sample 14, Klebsiella pneumoniae, beta-lactamase +
[17] = Sample 15, Klebsiella pneumoniae, beta-lactamase +
[18] = Sample 16, Klebsiella pneumoniae, beta-lactamase −

O=C(Cc1cccs1)N[C@@H]1C(=O)N2C(C(=O)O)=C(/C=C/c3ccc([N+](=O)[O-])cc3[N+](=O)[O-])CS[C@H]12 [NCF, 3-[2,4-dinitrostyryl]-7-(2-thienylacetamido]3-cephem-4-carboxylic acid]
NCF activity [1, 3]: 1.9 | NCF activity with lysis reagent [1, 3]: 7.2 | NCF activity [1, 4]: 2.1 | NCF activity with lysis reagent [1, 4]: 7.7 | NCF activity [1, 5]: 2.3 | NCF activity with lysis reagent [1, 5]: 8.1 | NCF activity [1, 6]: 1.9 | NCF activity with lysis reagent [1, 6]: 6.8 | NCF activity [1, 7]: 8.2 | NCF activity with lysis reagent [1, 7]: 9.1 | NCF activity [1, 8]: 7.2 | NCF activity with lysis reagent [1, 8]: 8.1 | NCF activity [1, 9]: 6.8 | NCF activity with lysis reagent [1, 9]: 8.4 | NCF activity [1, 10]: 1.7 | NCF activity with lysis reagent [1, 10]: 1.8 | NCF activity [2, 11]: 1.3 | NCF activity with lysis reagent [2, 11]: 4.6 | NCF activity [2, 12]: 3.3 | NCF activity with lysis reagent [2, 12]: 6.3 | NCF activity [2, 13]: 3.9 | NCF activity with lysis reagent [2, 13]: 6.1 | NCF activity [2, 14]: 2.6 | NCF activity with lysis reagent [2, 14]: 5.6 | NCF activity [2, 15]: 6.7 | NCF activity with lysis reagent [2, 15]: 6.8 | NCF activity [2, 16]: 7.5 | NCF activity with lysis reagent [2, 16]: 8.8 | NCF activity [2, 17]: 9.1 | NCF activity with lysis reagent [2, 17]: 9.5 | NCF activity [2, 18]: 1.2 | NCF activity with lysis reagent [2, 18]: 1.8
